From ChEMBL document CHEMBL1201862, “PubChem BioAssay data set” (2004) come the findings set out here.

Experiment [1] deals with Induced myeloid leukemia cell differentiation protein Mcl-1 (Homo sapiens, UniProt Q07820). It counts as functional.
Experiment [2] can be described thus: Luminescence Cell-Based Dose Response HTS to Identify Activators of Luciferase Translation or Activity in H4 […] Cells. [Related pubchem assays: 1829 (Project Summary), 1814 (Primary HTS)]. It counts as functional.
The test system of the next experiment is H4. Description: Luminescence Cell-Based Dose Response HTS to Identify Activators of 5'UTR Stem-Loop Driven Prion Protein mRNA Translation in H4 Neuroglioblastoma Cells. [Related pubchem assays: 1829 (Project Summary), 1814 (Primary HTS)]. The format is functional. The note with it: Homo sapiens.
For a further experiment, the target named is T1, Leucine aminopeptidase (Plasmodium falciparum 3D7, UniProt Q8IL11).
T1 sequence (Q8IL11 whole entry): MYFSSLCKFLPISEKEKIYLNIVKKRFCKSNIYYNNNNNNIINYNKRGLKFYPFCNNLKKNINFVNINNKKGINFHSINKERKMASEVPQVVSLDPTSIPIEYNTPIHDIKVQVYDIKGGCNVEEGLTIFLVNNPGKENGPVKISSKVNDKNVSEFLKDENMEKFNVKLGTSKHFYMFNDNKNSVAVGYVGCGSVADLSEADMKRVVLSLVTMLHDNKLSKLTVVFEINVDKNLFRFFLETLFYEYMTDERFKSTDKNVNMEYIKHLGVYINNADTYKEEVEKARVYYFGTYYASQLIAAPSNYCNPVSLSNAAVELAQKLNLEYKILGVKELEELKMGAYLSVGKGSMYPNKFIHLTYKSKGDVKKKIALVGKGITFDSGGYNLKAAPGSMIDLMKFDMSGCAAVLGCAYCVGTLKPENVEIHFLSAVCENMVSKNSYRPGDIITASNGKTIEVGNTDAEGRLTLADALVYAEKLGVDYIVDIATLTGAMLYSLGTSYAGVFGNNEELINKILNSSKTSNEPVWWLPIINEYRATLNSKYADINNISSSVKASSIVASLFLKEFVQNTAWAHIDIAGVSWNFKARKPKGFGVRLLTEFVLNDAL
The experiment in a line: P. falciparum M17LAP inhibitors, primary screen, biochemical, fluorogenic H-Leu-NHMec substrate, 1536-well (AID 1619). It counts as functional.

Experiment [3] addresses FAD-linked sulfhydryl oxidase ALR (Homo sapiens, UniProt P55789). Description: inhibitors of human ALR sulfhydryl oxidase, dose response, biochemical, H2O2 detection, luminescence, cherry-pick (AID 493248).
The nature of experiment [4]: cytotoxicity toward DRD oncogenic fibroblasts, dose response, cell-based, non-viral oncogenic, luminescence (AID 1934). As to conditions: Homo sapiens. The format is functional.
In experiment [5] the test system is BJ. The experiment in a line: cells. The format is functional, cell-based. The note with it: Homo sapiens.
Experiment [6] has as its system BJ. Description: cytotoxicity toward BJ-TERT-LT-ST fibroblasts, dose response, cell-based, RAS-independent, luminescence (AID 1935).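 Also: BJ fibroblasts immortalized with TERT plus LT and ST oncogenes.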 The note with it: Homo sapiens. It counts as functional.
For experiment [7], the system named is BJ. Description: cytotoxicity toward BJ-TERT fibroblasts, dose response, cell-based, RAS-independent, luminescence (AID 1933). The format is functional. The note with it: Homo sapiens.
Experiment [8] can be described thus: Luminescence Cell-Based Dose Response HTS to Identify Inhibitors of 5'UTR Stem-Loop Driven Prion Protein mRNA Translation in H4 Neuroglioblastoma Cells. [Related pubchem assays: 1827 (Project Summary), 1813 (Primary HTS)]. It counts as functional.
Experiment [9] in a line: inhibitors of SNCA 5'UTR-driven reporter translation, confirmation, H4 neuroglioma cells, luminescence (AID 1988). The format is functional, cell-based.
Experiment [10] in a line: C. albicans growth with fluconazole, confirmation, fluorescence, retest (AID 2467). The format is functional, cell-based.
In a further experiment the test system is INS1. The experiment in a line: beta cell apoptosis inhibitors, cytokine rescue, dose response, luminescence, retest (AID 449756).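 Also: cell death triggered by IL-1 beta plus TNF-alpha plus IFN-gamma mixture; protective hits raise ATP signal compared with cytokine alone wells.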 The format is functional, cell-based. As to conditions: Rattus norvegicus.
A short description of experiment [11]: inhibitors of firefly luciferase expression or activity, dose response, H4 neuroglioma cells, luminescence (AID 1990). The format is functional, cell-based.
A short description of experiment [12]: NIH-3T3 fibroblast cytotoxicity, dose response, cytotoxicity control, cell-based, fluorescence, Alamar Blue, secondary assay (AID 2327).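 Also: NIH-3T3 mouse fibroblasts cultured with fluconazole at 8 µg/mL.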 The format is functional.
In experiment [13] the target is T2, Zinc finger protein mex-5 (Caenorhabditis elegans, UniProt Q9XUB2).
T2 sequence (Q9XUB2 whole entry): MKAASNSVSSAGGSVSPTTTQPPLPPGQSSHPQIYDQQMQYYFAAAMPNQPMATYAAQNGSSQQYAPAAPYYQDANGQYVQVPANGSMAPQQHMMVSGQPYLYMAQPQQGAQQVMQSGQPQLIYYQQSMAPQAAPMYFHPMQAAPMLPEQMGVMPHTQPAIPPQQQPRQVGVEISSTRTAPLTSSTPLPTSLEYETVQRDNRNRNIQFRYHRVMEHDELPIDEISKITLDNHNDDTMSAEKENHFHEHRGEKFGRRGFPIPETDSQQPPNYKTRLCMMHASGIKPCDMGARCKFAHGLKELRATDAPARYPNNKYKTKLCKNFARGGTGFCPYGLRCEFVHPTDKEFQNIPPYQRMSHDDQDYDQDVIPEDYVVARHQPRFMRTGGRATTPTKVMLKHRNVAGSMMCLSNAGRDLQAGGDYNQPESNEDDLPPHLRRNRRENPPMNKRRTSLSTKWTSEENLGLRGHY
Description: MEX-5/TCR-2 RNA interaction inhibitors, dose response, biochemical, C. elegans, fluorescence polarization (AID 1960).

For experiment [14], the target named is T3, Polyadenylate-binding protein 1 (Homo sapiens, UniProt P11940). Description: PABP1 MLLE–PAM2 interaction inhibitors, dose response, miRNA deadenylation inhibitor project, biochemical, fluorescence polarization, Cy5-PAM2 peptide, secondary (AID 602260). The format is functional. As to conditions: read-out: IC50_Mean.
The target of experiment [15] is T4, RNA-binding protein pos-1 (Caenorhabditis elegans, UniProt G5EF15).
T4 sequence (G5EF15 whole entry): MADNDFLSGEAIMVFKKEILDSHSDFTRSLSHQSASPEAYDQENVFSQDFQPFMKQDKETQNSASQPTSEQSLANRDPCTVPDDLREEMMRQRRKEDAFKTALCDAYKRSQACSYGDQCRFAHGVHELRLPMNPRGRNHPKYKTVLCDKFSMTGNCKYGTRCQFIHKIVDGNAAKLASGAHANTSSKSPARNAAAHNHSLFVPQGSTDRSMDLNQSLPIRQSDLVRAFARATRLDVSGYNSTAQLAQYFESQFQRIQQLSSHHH
The experiment in a line: inhibitors of POS-1/mex-3 RNA binding, dose response, biochemical, fluorescence polarization (AID 1964).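 Also: purified POS-1 fused to maltose binding protein made in E. coli; potency of compounds blocking POS-1 binding to fluorescent RNA.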 For orientation: In fluorescence polarisation assays a small probe gives low polarisation when free and higher when bound to something large.

Experiment [16] has as its target T3, Polyadenylate-binding protein 1. Description: PABP1 MLLE–PAM2 binding inhibitor potency, dose response, biochemical, fluorescence polarization, FITC-PAM2 peptide (AID 602259). The note with it: read-out: IC50_Mean. It counts as functional.
For experiment [17], the target named is T5, Corticotropin-releasing factor receptor 2/Corticotropin-releasing factor-binding protein (Homo sapiens, UniProt P24387+Q13324).
T5 sequence (Q13324 whole entry): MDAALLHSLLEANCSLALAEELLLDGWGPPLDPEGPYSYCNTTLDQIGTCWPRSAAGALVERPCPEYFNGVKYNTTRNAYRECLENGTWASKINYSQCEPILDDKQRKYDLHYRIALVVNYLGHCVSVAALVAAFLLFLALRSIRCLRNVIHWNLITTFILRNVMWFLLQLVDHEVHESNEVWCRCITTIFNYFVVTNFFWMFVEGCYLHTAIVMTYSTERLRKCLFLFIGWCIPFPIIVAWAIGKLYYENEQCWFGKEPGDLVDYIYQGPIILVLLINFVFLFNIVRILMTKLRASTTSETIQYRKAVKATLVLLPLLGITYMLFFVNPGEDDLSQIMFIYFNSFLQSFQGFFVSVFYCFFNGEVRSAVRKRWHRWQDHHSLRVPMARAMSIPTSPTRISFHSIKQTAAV
T5 sequence (P24387 whole entry): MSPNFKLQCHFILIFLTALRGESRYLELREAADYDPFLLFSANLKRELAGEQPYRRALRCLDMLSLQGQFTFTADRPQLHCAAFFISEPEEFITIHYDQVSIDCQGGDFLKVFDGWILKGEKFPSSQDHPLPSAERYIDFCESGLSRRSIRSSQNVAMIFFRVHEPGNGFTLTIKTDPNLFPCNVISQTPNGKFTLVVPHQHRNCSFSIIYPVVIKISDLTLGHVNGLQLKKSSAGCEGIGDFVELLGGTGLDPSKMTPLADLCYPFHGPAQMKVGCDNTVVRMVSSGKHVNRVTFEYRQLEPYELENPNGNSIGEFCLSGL
Description: activators of CRF receptor 2 with binding protein – uHTS hits, confirmation (AID 602473). It counts as functional. The note with it: read-out: EC50_Mean.

Another experiment addresses Paired box protein Pax-8 (Homo sapiens, UniProt Q06710). The experiment in a line: inhibitors of PAX8-driven TPO luciferase reporter, dose response, RMG-I cells, cherry-pick (AID 687027).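 Also: luciferase reporter driven by Pax8 target thyroperoxidase promoter measured by SteadyGlo luminescence.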 It counts as functional, cell-based.
Experiment [18] is described as follows: cells. The format is functional, cell-based.
The nature of experiment [19]: cells. The format is functional, cell-based. The source holds these as a separate data set.

Activity calls are given as the source filed them.

FAD-linked sulfhydryl oxidase ALR, sequence (P55789 whole entry): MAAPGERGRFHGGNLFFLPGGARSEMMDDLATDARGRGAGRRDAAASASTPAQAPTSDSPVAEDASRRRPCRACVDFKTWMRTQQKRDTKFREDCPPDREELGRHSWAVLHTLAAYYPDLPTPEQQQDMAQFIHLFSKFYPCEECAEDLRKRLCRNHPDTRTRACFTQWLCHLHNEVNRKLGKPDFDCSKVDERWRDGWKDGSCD
T3 sequence (P11940 whole entry): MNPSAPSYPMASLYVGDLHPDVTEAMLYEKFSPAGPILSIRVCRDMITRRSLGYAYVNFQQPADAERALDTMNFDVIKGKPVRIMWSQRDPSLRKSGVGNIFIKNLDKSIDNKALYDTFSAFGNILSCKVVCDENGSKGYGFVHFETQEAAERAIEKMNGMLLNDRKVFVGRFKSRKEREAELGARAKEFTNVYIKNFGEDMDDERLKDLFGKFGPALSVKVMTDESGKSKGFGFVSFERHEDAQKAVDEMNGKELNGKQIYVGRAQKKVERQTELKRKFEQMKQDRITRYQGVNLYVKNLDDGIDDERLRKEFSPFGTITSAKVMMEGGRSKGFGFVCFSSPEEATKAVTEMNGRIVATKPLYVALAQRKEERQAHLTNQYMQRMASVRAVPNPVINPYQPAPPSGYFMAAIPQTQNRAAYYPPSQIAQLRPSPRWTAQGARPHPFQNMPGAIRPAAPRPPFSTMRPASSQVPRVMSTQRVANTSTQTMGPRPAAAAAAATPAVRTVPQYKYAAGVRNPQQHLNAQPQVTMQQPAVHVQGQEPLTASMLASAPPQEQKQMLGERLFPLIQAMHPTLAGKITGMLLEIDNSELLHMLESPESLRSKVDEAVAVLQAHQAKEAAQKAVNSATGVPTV
Paired box protein Pax-8, sequence (Q06710 whole entry): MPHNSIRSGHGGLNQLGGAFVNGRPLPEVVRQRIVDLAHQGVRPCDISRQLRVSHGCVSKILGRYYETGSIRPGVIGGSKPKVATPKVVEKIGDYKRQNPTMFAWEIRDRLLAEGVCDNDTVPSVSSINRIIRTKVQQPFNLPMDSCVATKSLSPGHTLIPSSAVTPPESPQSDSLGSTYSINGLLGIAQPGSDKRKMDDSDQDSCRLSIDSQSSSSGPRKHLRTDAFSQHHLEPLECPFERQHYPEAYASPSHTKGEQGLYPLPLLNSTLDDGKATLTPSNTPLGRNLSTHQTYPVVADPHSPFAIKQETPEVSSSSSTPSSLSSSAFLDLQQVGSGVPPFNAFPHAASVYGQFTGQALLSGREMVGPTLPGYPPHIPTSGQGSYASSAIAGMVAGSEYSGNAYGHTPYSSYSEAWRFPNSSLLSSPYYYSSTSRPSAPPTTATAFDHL
Induced myeloid leukemia cell differentiation protein Mcl-1, sequence (Q07820 whole entry): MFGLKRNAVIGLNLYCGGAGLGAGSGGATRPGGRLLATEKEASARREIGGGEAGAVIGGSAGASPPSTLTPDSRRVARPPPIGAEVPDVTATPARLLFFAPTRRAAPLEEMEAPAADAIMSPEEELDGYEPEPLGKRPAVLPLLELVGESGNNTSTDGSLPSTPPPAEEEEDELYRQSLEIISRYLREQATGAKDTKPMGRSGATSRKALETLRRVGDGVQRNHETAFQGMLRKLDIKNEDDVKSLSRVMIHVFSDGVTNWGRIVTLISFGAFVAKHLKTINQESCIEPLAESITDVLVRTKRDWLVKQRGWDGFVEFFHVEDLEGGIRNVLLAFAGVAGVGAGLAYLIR

For the molecule `CC(=O)c1sc2nc(-c3cccs3)ccc2c1N`, the IC50 in experiment [1] is recorded as 7.08 µM (not active). The EC50 in experiment [2] was > 120 µM (not active); in the experiment on H4, 33.2 µM (inconclusive).
Turning to `O=C(O)C1CC=CCC1C(=O)Nc1ccc2c(c1)OCCO2` (stereo not drawn), on Leucine aminopeptidase, the IC50 is 13.4 µM (active).
As usually defined, the AC50 is the concentration at which the activity in the assay is half-maximal. In the case of `CCS(=O)(=O)N1Cc2ccccc2CC1C(=O)N1CCN(c2ccccc2)CC1` (stereo not drawn), the AC50 in experiment [3] is 12.1 µM (active).
On the same count and under the same terms, the result for `COc1ccc(OC)c(C(=O)N2CCCC(Nc3ccc(F)cc3)C2)c1` (stereo not drawn) reads 1.92 µM (active); that for `Cc1ccc(C(=O)Nc2nc(-c3ccc([N+](=O)[O-])cc3)cs2)o1`, 0.675 µM (active).
Take `CC(=O)Nc1c(O)nc(SCC(=O)Nc2cccc(C)c2)[nH]c1=O`: the IC50 at Leucine aminopeptidase was 9.85 µM (active).
As to `Cn1c(=O)c(C(=O)COC(=O)c2cc(-c3ccco3)nc3ccccc23)c(N)n(CC2CC2)c1=O`, in experiment [1], the IC50 is 1.99 µM (active).
For the molecule `c1csc(-c2nc3ccccn3c2NC2CCCCC2)c1`, the AC50 in [3] is 0.678 µM (active).
As to `CCCOc1ccc(NC(=O)C2CC(=O)N(C(C)C)C2)cc1` (stereo not drawn), the IC50 at Leucine aminopeptidase was 99.7 µM (active).
As to `O=C(O)c1ccc(N2C(=O)/C(=C/c3nc4ccccc4[nH]3)SC2=S)cc1`, the AC50 in experiment [3] was 0.009 µM (active).
As for `CSc1cc(-c2ccccc2)n(Cc2c(Cl)cccc2Cl)c(=O)c1C#N`, the EC50 in experiment [4] is 3.1 µM (active); in the experiment with BJ [5], 64.7 µM (inconclusive); in the experiment with BJ [6], 2.86 µM (active); with BJ [7], 5.96 µM (active).
Consider `[O-]c1ccccc1-[n+]1c(-c2ccccc2)cc(-c2ccccc2)cc1-c1ccccc1`, for which the EC50 in experiment [4] is 11.4 µM (active); in [8] it was > 120 µM (not active); in experiment [9] it was > 120 µM (not active); in experiment [10] it was 0.85 µM (active); in the experiment on BJ [5] it was 14.2 µM (active); with BJ [6], > 150 µM (inconclusive). The EC50 is > 120 µM (not active) in experiment [11], > 160 µM (inconclusive) in experiment [12] and 11.7 µM (active) in the experiment on BJ [7]. Further, the AC50 in the experiment on INS1 was 6.35 µM (active).
Take `COc1ccc(C2C(C(=O)c3ccco3)=C(O)C(=O)N2c2nnc(C)s2)cc1OC` (stereo not drawn): the EC50 is 297 µM (active) in experiment [13] and > 300 µM (not active) in [15]. The IC50 in experiment [14] was > 66 µM (inactive); in experiment [16], 50.4 µM (inactive).
In the case of `O=C(NCC(c1cccnc1)N1CCN(c2ccccc2)CC1)OCc1ccccc1` (stereo not drawn), the AC50 in experiment [3] was 6.15 µM (active).
For `CN(C)c1ccc(CNC(=O)c2cc(S(=O)(=O)N3CCCC3)cn2C)cc1`, the AC50 in [3] was 8.78 µM (active).
As for `O=C(Cc1ccc(Cl)cc1)NC(=S)Nc1ccccc1O`, the EC50 in experiment [17] was 5.99 µM (active). Moreover, the IC50 in experiment [14] and in experiment [16] was > 66 µM (inactive) throughout.
As for `Cn1c(CCN2CCN(c3ccccn3)CC2)nc2cc(NS(=O)(=O)c3ccc(Cl)cc3)ccc21`, the AC50 on Paired box protein Pax-8 is 8.15 µM (active).
Take `CC(=O)N1CCN=C1SCc1ccccc1F`: in experiment [3], the AC50 was 13.9 µM (active).
Take `CCOC(=O)CSc1nc2c(sc(=S)n2-c2ccccc2)c(=O)[nH]1`: at Leucine aminopeptidase, the IC50 is 35.6 µM (active).
On the same count and under the same terms, the result for `Cc1cc(O)nc(SCC(=O)Nc2ccccc2C#N)c1C#N` reads 13.9 µM (active).
Consider `Cn1nccc1C(=O)N/N=C/c1c(O)ccc2ccccc12`, for which the EC50 is 1.59 µM (active) in [4]; 5.93 µM (active) in “cells [18]”; 38.7 µM (active) in “cells [19]”; 7.69 µM (active) in the experiment on BJ [5]; 4.66 µM (active) with BJ [6]; 1.61 µM (active) in the experiment on BJ [7]. Moreover, the AC50 with INS1 was 0.856 µM (active).
With `C[C@@H]1CN([C@@H](C)CO)S(=O)(=O)c2ccc(C#Cc3ccc(F)cc3)cc2O[C@H]1CN(C)C(=O)NC1CCCCC1`, at Paired box protein Pax-8, the AC50 was 7.93 µM (active).
In the case of `CC1=NNC(=O)C1CC(=O)N/N=C(\C)c1cccs1` (stereo not drawn), the IC50 at Leucine aminopeptidase was 3.56 µM (active).
